Measured values from patent US6537803B1, “Amino acid transporters and uses” (Oregon Health Sciences University, priority 1993, dated 2003).
Where two headings read alike, the source gives them in different places.

Key:
Format in all cases: cell-based
human EAAT1 = target: T1, human EAAT1 (Homo sapiens, UniProt P43003); assay: inhibition of [3H]-L-glutamate uptake in COS-7 cells expressing EAAT1; conditions: for inhibition of glutamate uptake (in words), EAAT1: COS cell culture
T1 construct: expressed in transfected cells; host or cells: COS-7 cells, pCMV5 construct, DEAE-dextran transient transfection
T1 sequence (P43003 whole entry): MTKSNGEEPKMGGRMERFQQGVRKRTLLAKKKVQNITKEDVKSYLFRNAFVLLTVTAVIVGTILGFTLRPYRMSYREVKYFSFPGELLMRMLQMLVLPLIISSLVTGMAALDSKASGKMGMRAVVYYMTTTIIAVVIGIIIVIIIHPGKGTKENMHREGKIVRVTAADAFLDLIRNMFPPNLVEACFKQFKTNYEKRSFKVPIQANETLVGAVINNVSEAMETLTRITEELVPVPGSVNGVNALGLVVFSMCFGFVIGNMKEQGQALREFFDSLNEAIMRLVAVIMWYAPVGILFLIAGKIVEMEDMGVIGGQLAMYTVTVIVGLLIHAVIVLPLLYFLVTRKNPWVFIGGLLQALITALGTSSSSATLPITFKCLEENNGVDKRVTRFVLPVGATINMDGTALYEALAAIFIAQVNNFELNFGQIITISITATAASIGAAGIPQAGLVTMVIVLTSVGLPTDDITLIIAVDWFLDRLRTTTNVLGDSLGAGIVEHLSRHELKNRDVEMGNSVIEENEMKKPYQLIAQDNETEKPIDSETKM
Source text: (§1) DNA fragments comprising the coding sequences of the novel glutamate transporter genes of the invention were excised from the POTV constructs described in Example 3 and subcloned into the mammalian expression plasmid pCMV5 (Anderson et al., 1989, J. Biol. Chem. 264: 8222-8229). These mammalian expression constructs were used for transient expression assays of glutamate transporter protein function after transfection of each of these constructs into COS-7 cells (Gluzman, 1981, Cell 23: 175-182).
(§2) Each of the pCMV5 constructs corresponding to EAAT1, EAAT2 and EAAT3 were introduced into COS-7 cells by DEAE-dextran facilitated transfection (see Sambrook et al., ibid.). Two day following transfection, the transfected cells were washed three times in phosphate-buffered saline (PBS) and then incubated with a mixture of radiolabeled amino acid ([^3H]-L-glutamate or [^3H]-D-aspartate; Dupont-NEN) and non-radiolabeled amino acid for 10 min. After incubation, the cells were washed three times with ice-cold PBS, solubilized with a solution of 0.1% sodium dodecyl sulfate (SDS) and the amount of radioactivity associated with the cells determined using standard liquid scintillation counting methods.
(§3) COS-7 cell cultures transformed with pCMVS-human glutamate transporter constructs as described in Example 4 were used to characterize the pharmacological properties of each of these transporter proteins relative to a variety of known glutamate transporter inhibitors. These assays were performed essentially as described in Example 4, with the exception that varying amounts of each of a number of known inhibitor compounds were included in the incubations.
(§4) In these experiments, uptake of 1 μM of […] was determined in the presence of the indicated amounts of each of the inhibitors.

human EAAT2 = target: T2, human EAAT2 (Homo sapiens, UniProt P43004); assay: inhibition of [3H]-L-glutamate uptake in COS-7 cells expressing EAAT2; conditions: for inhibition of glutamate uptake (in words), EAAT2: COS cell culture
T2 construct: expressed in transfected cells; host or cells: COS-7 cells, pCMV5 construct, DEAE-dextran transient transfection
T2 sequence (P43004 whole entry): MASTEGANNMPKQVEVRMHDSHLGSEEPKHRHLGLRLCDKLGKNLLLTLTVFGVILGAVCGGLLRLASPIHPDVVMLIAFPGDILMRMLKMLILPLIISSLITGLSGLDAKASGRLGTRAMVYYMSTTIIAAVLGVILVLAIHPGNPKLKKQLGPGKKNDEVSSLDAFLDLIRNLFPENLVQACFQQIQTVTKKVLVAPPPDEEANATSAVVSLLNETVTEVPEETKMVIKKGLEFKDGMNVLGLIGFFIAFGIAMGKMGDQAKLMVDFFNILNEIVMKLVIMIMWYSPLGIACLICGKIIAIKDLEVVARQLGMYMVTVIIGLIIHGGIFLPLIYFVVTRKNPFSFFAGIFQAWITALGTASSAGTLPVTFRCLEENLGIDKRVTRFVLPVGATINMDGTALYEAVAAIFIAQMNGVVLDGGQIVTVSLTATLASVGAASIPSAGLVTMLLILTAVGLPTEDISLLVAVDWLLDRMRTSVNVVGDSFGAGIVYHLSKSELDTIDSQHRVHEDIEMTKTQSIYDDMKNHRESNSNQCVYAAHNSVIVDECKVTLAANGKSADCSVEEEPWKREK
Source text: as §1, §2, §3, §4

human EAAT3 = target: T3, human EAAT3 (Homo sapiens, UniProt P43005); assay: inhibition of [3H]-L-glutamate uptake in COS-7 cells expressing EAAT3; conditions: for inhibition of glutamate uptake (in words), EAAT3: COS cell culture
T3 construct: isolation of Clone GT11B containing a full-length open reading frame encoding EAAT3; expressed in transfected cells; host or cells: COS-7 cells, pCMV5 construct, DEAE-dextran transient transfection
T3 sequence (P43005 1-524): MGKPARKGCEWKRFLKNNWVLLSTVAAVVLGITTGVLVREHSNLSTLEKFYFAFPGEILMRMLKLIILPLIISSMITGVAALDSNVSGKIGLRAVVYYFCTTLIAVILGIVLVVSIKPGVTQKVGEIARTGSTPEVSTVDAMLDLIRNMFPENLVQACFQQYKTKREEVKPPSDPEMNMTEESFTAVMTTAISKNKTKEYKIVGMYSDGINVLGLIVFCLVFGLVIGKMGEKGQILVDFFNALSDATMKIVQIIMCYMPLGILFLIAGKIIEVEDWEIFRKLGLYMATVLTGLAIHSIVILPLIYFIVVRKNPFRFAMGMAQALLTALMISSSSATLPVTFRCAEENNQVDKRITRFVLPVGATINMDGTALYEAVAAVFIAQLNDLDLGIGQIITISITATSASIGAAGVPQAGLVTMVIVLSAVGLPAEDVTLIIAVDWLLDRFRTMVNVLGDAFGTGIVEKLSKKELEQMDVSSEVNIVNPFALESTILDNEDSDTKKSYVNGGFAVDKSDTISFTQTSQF
Source text: as §1, §2, §3, §4

[1] = target: T4, human ASCT1 neutral amino acid transporter (Homo sapiens, UniProt P43007); assay: amino acid-induced inward current in voltage-clamped ASCT1-injected Xenopus oocytes; conditions: for Imax (maximal current): L-stereoisomer, current normalized to the maximum response obtained with L-alanine, mean ± standard error; for effect on membrane current of ASCT1-injected oocytes: much higher concentrations (about 1 mM)
T4 construct: expressed in transfected cells; host or cells: Xenopus laevis oocytes injected with in vitro transcribed RNA (pOTV vector)
T4 sequence (P43007 1-532): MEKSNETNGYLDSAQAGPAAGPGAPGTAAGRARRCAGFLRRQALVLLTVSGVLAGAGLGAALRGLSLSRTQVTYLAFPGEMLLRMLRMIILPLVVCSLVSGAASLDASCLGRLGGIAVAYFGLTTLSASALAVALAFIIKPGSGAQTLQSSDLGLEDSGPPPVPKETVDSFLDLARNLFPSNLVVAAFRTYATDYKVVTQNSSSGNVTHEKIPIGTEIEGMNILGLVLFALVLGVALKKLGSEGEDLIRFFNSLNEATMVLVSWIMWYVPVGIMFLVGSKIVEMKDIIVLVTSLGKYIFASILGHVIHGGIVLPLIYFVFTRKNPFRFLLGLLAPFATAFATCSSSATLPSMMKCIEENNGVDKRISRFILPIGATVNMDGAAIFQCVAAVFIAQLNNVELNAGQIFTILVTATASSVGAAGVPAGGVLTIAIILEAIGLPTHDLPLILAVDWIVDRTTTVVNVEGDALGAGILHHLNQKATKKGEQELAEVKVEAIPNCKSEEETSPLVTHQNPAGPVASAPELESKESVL
Source text: Following the PCR, the product of the amplification reaction was purified using standard techniques (Saiki et al., 1988, Science 239: 487-491). The DNA then digested with the restriction enzymes KpnI and XbaI and then cloned into the polylinker of an oocyte transcription vector (POTV; see Wang el al., 1991, Nature 352: 729-731) that had been digested with KpnI and XbaI. Synthetic RNA was then transcribed in vitro from this clone using the method of Kavanaugh et al. (1992, J. Biol. Chem. 267: 22007-22009) employing bacteriophage T7 RNA polymerase (New England Biolabs, Beverly, Mass.). 20-50 nL of ASCT1 RNA (at a concentration of about 400 μg/mL) was injected into defolliculated stage V-VI Xenopus oocytes excised from female Xenopus laevis anesthetized by immersion in 3-aminobenzoic acid for 60 min. Excised oocytes were treated with collagenase II (Sigma Chemical Co., St. Louis, Mo.) in calcium-free Barth's saline solution [comprising 88 mM NaCl, 1 mM KCl, 2.4 mM NaHCO3, 0.82 mM MgSO4, 7.5 mM Tris-HCl (pH 7.6), 50 U/mL Nystatin (Sigma) and 0.1 mg/mL gentamycin (Sigma)] for 60 min., and then incubated overnight at 15° C. in 50% Leibowitz's L-15 media (Grand Island Biological Co. (GIBCO), Long Island, N.Y.). After overnight incubation the oocytes were mechanically defolliculated and then were injected with ASCT-1 RNA and incubated at 19° C. for 48 h (see Kim el al., 1991, Nature 352: 725-728 for further details of Xenopus oocyte preparation and microinjection).
Amino acid transport in such oocytes was assayed using [^3H] alanine, [^3H] serine or [^35S] cysteine (obtained from New England Nuclear, Boston, Mass.). Briefly, microinjected oocytes were […] at −60 mV using a Dagan TEV-200 clamp amplifier with an Axon Instruments (Foster City, Calif.) TL-1 A/D interface controlled by pCLAMP software (Axon Instruments) (see Kavanaugh et al., 1992, J. Biol. Chem. 267: 22007-22009 for a detailed review of this methodology) and continuously superfused with ND-96 buffer (consisting of 96 mM NaCl/2 mM KCl/1.8 mM CaCl2/1 mM MgCl2/5 mM HEPES, pH 7.5). For transport measurements, this solution was changed to a solution containing varying concentrations of the radiolabeled amino acids in ND-96 buffer.
More detailed analyses of ithe kinetics of amino acid influx were performed by least squares linear regression analysis of induced inward current ([I]) plotted as a function of substrate amino acid concentration ([S]), using the equation shown in the legend of Table II.

N[C@@H](CSS(=O)(=O)O)C(=O)O [S-sulfo-L-cysteine]
inhibition of glutamate uptake (in words), EAAT1 (human EAAT1): ineffective | inhibition of glutamate uptake (in words), EAAT2 (human EAAT2): ineffective | inhibition of glutamate uptake (in words), EAAT3 (human EAAT3): ineffective

N[C@@H](COS(=O)(=O)O)C(=O)O [SOS, L-serine-O-sulfate]
Ki (human EAAT1): 107 ± 8 µM | Ki (human EAAT2): 1160 ± 275 µM | Ki (human EAAT3): 150 ± 52 µM

N[C@H](C(=O)O)[C@H](O)C(=O)O [THA, L-threo-β-hydroxyaspartate]
Ki (human EAAT1; read-out: Ki, glutamate uptake inhibition constant, EAAT1): 32 ± 8 µM | Ki (human EAAT2; read-out: Ki, glutamate uptake inhibition constant, EAAT2): 19 ± 6 µM | Ki (human EAAT3; read-out: Ki, glutamate uptake inhibition constant, EAAT3): 25 ± 5 µM

C[C@@H](O)[C@H](N)C(=O)O [Threonine]
Imax (maximal current) [1]: 1.4 ± 0.03

CC(C)[C@H](N)C(=O)O [Valine]
Imax (maximal current) [1]: 0.6 ± 0.11

N=C(N)NCCC[C@H](N)C(=O)O [arginine]
effect on membrane current of ASCT1-injected oocytes [1]: had no effect

NC(=O)C[C@H](N)C(=O)O [asparagine]
effect on membrane current of ASCT1-injected oocytes [1]: had no effect

NC1(C(=O)O)CC(C(=O)O)C1 (stereo not drawn) [cis-1-aminocyclobutane-1,3-dicarboxylate]
inhibition of glutamate uptake (in words), EAAT1 (human EAAT1): ineffective | inhibition of glutamate uptake (in words), EAAT2 (human EAAT2): ineffective | inhibition of glutamate uptake (in words), EAAT3 (human EAAT3): ineffective

NCC(=O)O [glycine]
effect on membrane current of ASCT1-injected oocytes [1]: had no effect

CC(C)C[C@H](N)C(=O)O [leucine]
effect on membrane current of ASCT1-injected oocytes [1]: had no effect

CSCC[C@H](N)C(=O)O [methionine]
effect on membrane current of ASCT1-injected oocytes [1]: had no effect

O=C(O)[C@@H]1CCCN1 [proline]
effect on membrane current of ASCT1-injected oocytes [1]: had no effect

N[C@@H](Cn1oc(=O)[nH]c1=O)C(=O)O [quisqualate]
inhibition of glutamate uptake (in words), EAAT1 (human EAAT1): ineffective | inhibition of glutamate uptake (in words), EAAT2 (human EAAT2): ineffective | inhibition of glutamate uptake (in words), EAAT3 (human EAAT3): ineffective

NC(CCCC(=O)O)C(=O)O (stereo not drawn) [α-aminoadipate]
inhibition of glutamate uptake (in words), EAAT1 (human EAAT1): only low potency | inhibition of glutamate uptake (in words), EAAT2 (human EAAT2): only low potency | inhibition of glutamate uptake (in words), EAAT3 (human EAAT3): only low potency

NC(CC(=O)O)CC(=O)O [β-glutamate]
Ki (human EAAT1; uptake of 1 μM [3H]-L-glutamate, [S] << Km, Ki does not differ significantly from measured IC50, read-out: Ki, glutamate uptake inhibition constant, EAAT1): 297 ± 118 µM | Ki (human EAAT2; uptake of 1 μM [3H]-L-glutamate, [S] << Km, Ki does not differ significantly from measured IC50, read-out: Ki, glutamate uptake inhibition constant, EAAT2): 156 ± 37 µM | Ki (human EAAT3; uptake of 1 μM [3H]-L-glutamate, [S] << Km, Ki does not differ significantly from measured IC50, read-out: Ki, glutamate uptake inhibition constant, EAAT3): 307 ± 48 µM
